# Publication PMC5736782, “The Differential Absorption of a Series of P-Glycoprotein Substrates in Isolated Perfused Lungs from Mdr1a/1b Genetic Knockout Mice can be Attributed to Distinct Physico-Chemical Properties: an Insight into Predicting Transporter-Mediated, Pulmonary Specific Disposition” (Pharmaceutical Research, 2017)
# Key:
# [1] = Immobilised artificial membrane (IAM) chromatography; assay type: physicochemical; conditions: extrapolated to 100% water; mean of four experiments
# Procedure: IAM chromatography provided an experimental measure of substrate membrane affinity and phospholipid interaction. The IAM column (Regis Technologies Inc., Hichrom, Reading, UK; IAM.PC.DD2 10 cm x 4.6 mm ID column) was run under isocratic eluting conditions with the retention of all compounds determined under three mobile phase conditions: 10%, 20% and 30% acetonitrile in water, and from which the theoretical retention time in 100% water was calculated by linear regression. LogK^IAM values were calculated according to Eq. 2:2 LogK^IAM=LogTr−T0/T0
# where Tr and T0 are respectively the retention times of the substrate in 100% water and of the unretained compound, i.e. eluting within the solvent front of 75 s in all experiments.
# [2] = test system: P-gp (Mdr1a/1b) in mouse intestinal segments; assay: Ussing chamber intestinal permeability, ileal segments Mdr1a/1b (+/+) vs (−/−); conditions: for Mdr1a/1b (−/−) Permeability coefficient: P-gp knockout intestinal segments; for Mdr1a/1b (−/−) Permeability coefficient / Mdr1a/1b (+/+) Permeability coefficient: mucosal to serosal, 50 μM, 180 min; for Ratio Permeability (−/−): (+/+): intestinal Papp KO:WT; for Mdr1a/1b (+/+) Permeability coefficient: wild-type intestinal segments
# Procedure: The bathing fluid for both mucosal and serosal surfaces (3 mL volume in each chamber) comprised oxygenated Krebs-Henseleit buffer maintained at 37°C (heating block) under stirred conditions (gas flow manifold). […] Any intestinal segments presenting an initial TEER of lower than 80 Ω.cm^2 were discarded prior to the experiment, likewise any segments whose TEER decreased by more than 10% over the course of the experiment were excluded.
# Thereafter permeability coefficients were determined according to Eq. 4:4 ρ=dM/dt/A^∗C0
# [3] = Multi-lamellar liposome vesicle (MLV) partitioning; assay type: physicochemical; conditions: (C0−CS)/C0, 1 μg/mL, 4 h, 37°C, PBS pH 7.4
# Procedure: MLVs were formed as previously described ([20]). Briefly, solutions of 8 mg phosphatidylcholine and 2 mg phosphatidylglycerol in 10 mL chloroform were completely dried to a lipid film (rotation under vacuum).
# These preparations were then incubated at 37°C for 4 h under shaking conditions to allow equilibration of compound between the lipid and aqueous fractions. The MLVs were then pelleted and 100 μL of supernatant removed for analysis by radiometric or LC-MS/MS methods as described above. Partitioning into the MLVs was determined according to Eq. 3:3 MLVpartitioning=C0−CS/C0
# where C0 is the initial compound concentration (1 μg/mL) and CS is the compound concentration present in the aqueous supernatant at the end of 4 h incubation.
# [4] = test system: P-glycoprotein (Mdr1a/Mdr1b) in isolated perfused mouse lung; assay: Isolated perfused mouse lung (IPML) airway-to-perfusate absorption, Mdr1a/1b (+/+) vs (−/−); conditions: for Mdr1a/1b (+/+) ‘F’ estimate by model fit [95% CI) / Mdr1a/1b (-/-) ‘F’ estimate by model fit [95% CI) / Ratio AUCs (-/-) : (+/+) / Mdr1a/1b (+/+) % Deposited Dose absorbed / Mdr1a/1b (-/-) % Deposited Dose absorbed: male, mouse, 50 μM; for Mdr1a/1b (+/+) % Deposited Dose absorbed / Mdr1a/1b (-/-) % Deposited Dose absorbed: 30 min
# Procedure: The atria and the lower half of the heart were cut to allow the free flow of perfusate. The lungs were removed and suspended vertically in a custom water-jacketed glass thorax (Radleys, Essex, UK) maintained at 37°C.
# Following dosing of compound into the IPML airways serial samples (250 μL) were collected for bioanalysis from the 10 mL recirculating perfusate reservoir. Each sample collected from the reservoir was replaced with an equal volume of fresh warmed, oxygenated perfusate. Upon termination of the experiment the dose solutions, apparatus washings and perfusate samples were collected for mass balance calculations enabling determination of the actual total dose delivered to the lungs.
# Radioactive compounds were directly analysed by liquid scintillation counting. Volumes of 50 μL perfusate samples were mixed with 3 mL of Scintisafe 3 Liquid Scintillation Fluid (Fisher, UK) and transferred to vials for scintillation counting using a TriCarb 2900TR (Packard Bioscience, USA).
# After accounting for the mass of compound removed at each sample point, plots of the cumulative ‘%deposited dose absorbed’ versus ‘time’ were generated and subject to nonlinear regression analysis according to a first-order absorption one-compartment accumulating model (Eq. 1) to generate estimates for the extent (F) and rate (Ka) of absorption from the IPML airways to the recirculating perfusate.
# The data was also subject to standard non-compartmental analysis, specifically Area Under Curve (AUC0–30 min) of ‘%deposited dose absorbed’ versus ‘time’ (units: %Dose.min) and reflecting for the exclusively accumulating perfusate ‘compartment’ the exposure arising from the IPML absorption process alone.
# [5] = molecular target: T1, mouse Bcrp (Mus musculus, UniProt Q7TMS5); assay: Gentest ABC transporter membrane ATPase assay; assay type: biochemical; conditions: for Vmax: ATPase, 0 indicates no enzyme turnover
# T1 construct: purchased Corning (Gentest), Germany
# T1 sequence (Q7TMS5 1-657): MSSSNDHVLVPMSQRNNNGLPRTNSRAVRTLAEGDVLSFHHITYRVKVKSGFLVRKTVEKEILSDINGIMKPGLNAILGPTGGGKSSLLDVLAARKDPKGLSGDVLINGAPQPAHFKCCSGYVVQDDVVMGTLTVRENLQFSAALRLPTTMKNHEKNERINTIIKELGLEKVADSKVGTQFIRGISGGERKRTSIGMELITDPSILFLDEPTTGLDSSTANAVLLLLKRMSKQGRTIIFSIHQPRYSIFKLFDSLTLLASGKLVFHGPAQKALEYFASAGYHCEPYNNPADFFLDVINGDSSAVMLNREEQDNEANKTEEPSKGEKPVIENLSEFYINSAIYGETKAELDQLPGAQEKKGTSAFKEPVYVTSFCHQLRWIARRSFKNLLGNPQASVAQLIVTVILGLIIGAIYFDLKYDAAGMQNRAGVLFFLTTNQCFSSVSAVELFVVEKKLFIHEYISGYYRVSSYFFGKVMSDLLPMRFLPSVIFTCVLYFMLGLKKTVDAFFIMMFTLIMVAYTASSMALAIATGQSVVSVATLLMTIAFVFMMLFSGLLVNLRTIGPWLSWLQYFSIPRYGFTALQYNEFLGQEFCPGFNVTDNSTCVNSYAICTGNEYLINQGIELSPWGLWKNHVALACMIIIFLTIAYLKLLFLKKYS
# Source text: (§1) The Gentest ATPase assay (Corning, Germany) was used to investigate the binding kinetics of the panel of P-gp substrates against membranes constituted to display human MDR1, mouse Mdr1a, mouse Mdr1b and mouse Bcrp. The assays measure the accumulation of inorganic phosphate (absorbance at 800 nm) produced in the breakdown of ATP to ADP. […] The assays were used in accordance with the manufacturer’s protocol to calculate (GraphPad Prism) the Michaelis-Menten parameters Km and VMAX. For the assay test compounds were serially diluted to produce an assay concentration range of 0–300 μM with the kinetics of ATP turnover examined over 30 min at 37°C.
# [6] = molecular target: mouse Mdr1a (Mus musculus, UniProt P21447); assay: Gentest ABC transporter membrane ATPase assay; conditions: 0–300 μM, 30 min, 37°C
# mouse Mdr1a, sequence (P21447 whole entry): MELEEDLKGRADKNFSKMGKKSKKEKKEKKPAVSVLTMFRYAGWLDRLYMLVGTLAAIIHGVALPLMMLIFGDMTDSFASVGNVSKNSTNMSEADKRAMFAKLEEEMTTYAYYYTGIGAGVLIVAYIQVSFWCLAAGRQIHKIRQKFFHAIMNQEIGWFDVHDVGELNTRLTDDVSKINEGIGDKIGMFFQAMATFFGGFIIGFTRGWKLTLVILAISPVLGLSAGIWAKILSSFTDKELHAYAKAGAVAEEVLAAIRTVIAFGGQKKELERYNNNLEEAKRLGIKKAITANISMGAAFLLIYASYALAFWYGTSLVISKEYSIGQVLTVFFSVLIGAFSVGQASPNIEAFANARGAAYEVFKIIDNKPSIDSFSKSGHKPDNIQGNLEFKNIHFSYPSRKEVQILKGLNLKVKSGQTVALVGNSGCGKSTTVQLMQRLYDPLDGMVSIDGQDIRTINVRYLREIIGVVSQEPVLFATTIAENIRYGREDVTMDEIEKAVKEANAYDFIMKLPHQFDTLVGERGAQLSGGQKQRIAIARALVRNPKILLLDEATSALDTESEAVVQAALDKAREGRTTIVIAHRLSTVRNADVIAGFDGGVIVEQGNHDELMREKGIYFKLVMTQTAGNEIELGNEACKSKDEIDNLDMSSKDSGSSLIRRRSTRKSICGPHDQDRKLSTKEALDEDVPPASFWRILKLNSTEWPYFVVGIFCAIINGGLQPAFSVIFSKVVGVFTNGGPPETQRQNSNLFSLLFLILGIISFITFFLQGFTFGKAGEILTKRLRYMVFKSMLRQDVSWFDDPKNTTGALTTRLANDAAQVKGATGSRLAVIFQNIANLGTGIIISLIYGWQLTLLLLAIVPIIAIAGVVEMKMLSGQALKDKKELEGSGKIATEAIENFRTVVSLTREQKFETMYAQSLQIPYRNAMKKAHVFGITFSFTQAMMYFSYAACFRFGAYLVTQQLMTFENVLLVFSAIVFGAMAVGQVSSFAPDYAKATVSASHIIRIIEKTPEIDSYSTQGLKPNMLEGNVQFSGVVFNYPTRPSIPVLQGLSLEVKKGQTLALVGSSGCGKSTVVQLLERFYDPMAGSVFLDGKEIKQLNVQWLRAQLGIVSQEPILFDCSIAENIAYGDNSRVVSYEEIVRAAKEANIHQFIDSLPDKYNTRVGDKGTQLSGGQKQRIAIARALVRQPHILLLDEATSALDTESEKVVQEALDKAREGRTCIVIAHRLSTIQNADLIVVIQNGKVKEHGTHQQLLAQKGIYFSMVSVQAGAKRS
# [7] = molecular target: mouse Mdr1b (Mus musculus, UniProt P06795); assay: Gentest ABC transporter membrane ATPase assay; conditions: 0–300 μM, 30 min, 37°C
# mouse Mdr1b, sequence (P06795 whole entry): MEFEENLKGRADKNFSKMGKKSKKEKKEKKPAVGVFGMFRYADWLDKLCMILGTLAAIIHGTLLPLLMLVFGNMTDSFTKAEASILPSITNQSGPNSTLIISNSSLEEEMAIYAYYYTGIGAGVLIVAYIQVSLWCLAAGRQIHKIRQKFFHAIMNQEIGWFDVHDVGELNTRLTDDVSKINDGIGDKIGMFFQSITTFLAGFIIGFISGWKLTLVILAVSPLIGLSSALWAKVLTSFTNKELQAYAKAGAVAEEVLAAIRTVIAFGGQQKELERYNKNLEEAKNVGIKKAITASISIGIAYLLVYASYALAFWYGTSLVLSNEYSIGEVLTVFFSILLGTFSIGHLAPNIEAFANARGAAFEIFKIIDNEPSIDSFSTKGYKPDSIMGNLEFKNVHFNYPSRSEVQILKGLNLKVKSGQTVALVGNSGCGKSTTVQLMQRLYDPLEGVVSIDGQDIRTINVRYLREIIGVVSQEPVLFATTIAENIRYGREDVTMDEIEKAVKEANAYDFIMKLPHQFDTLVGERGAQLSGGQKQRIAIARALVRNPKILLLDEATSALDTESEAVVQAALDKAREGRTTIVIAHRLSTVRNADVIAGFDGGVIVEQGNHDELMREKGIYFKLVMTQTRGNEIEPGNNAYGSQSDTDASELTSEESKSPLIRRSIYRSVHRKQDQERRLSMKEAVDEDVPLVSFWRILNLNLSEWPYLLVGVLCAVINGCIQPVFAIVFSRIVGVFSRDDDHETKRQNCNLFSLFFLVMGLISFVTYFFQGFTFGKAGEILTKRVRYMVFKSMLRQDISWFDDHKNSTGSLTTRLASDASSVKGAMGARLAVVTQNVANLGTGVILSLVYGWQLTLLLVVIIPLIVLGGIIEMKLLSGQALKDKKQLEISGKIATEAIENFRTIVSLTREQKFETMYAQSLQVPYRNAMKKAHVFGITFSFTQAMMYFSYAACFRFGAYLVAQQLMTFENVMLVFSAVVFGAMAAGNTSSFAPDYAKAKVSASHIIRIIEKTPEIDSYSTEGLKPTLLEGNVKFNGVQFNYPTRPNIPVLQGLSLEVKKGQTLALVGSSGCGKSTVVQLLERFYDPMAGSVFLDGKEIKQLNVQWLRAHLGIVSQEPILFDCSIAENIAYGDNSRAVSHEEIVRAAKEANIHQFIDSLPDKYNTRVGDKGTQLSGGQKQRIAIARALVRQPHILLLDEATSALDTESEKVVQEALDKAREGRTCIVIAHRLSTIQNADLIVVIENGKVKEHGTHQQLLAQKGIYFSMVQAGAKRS
# Source text: as §1
# [8] = molecular target: human MDR1 (Homo sapiens, UniProt P08183); assay: Gentest ABC transporter membrane ATPase assay; conditions: ATPase, 0–300 μM, 30 min, 37°C
# human MDR1, sequence (P08183 whole entry): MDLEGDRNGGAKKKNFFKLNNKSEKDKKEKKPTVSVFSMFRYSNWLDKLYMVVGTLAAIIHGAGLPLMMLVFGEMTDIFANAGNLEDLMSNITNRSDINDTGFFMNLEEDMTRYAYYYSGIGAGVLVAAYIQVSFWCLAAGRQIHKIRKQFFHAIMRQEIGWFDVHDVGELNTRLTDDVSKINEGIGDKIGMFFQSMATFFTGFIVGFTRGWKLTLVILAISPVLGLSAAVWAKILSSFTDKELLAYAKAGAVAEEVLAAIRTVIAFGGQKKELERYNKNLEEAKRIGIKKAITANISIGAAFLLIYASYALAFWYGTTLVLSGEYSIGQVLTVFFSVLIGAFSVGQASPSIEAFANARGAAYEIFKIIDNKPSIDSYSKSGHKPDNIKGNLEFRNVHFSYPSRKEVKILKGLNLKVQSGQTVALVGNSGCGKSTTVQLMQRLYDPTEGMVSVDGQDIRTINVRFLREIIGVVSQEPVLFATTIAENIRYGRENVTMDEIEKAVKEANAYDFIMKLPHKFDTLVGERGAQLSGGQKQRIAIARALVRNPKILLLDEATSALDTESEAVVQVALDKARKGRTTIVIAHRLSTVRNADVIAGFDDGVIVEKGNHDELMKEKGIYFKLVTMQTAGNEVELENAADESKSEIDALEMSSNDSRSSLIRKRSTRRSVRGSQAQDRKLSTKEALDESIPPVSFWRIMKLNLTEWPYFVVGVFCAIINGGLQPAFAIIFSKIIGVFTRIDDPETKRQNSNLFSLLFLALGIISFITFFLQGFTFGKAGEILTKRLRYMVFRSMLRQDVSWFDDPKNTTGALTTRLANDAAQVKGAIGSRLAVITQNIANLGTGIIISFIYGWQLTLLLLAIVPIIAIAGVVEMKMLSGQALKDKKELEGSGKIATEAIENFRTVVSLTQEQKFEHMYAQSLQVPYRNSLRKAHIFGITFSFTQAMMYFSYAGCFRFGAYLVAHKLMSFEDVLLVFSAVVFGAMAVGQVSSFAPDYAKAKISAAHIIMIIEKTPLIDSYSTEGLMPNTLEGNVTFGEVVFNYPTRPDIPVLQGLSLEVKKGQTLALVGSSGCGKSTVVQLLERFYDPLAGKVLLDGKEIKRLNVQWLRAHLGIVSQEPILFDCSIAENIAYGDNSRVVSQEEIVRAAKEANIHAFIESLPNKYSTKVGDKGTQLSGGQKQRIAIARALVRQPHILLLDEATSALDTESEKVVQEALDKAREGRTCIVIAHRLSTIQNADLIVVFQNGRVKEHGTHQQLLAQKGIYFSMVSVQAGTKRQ
# Source text: as §1
# [9] = set-up: method as in PMID 12761811; conditions: cited from earlier work
# [10] = test system: Caco-2 cell model; set-up: method as in PMID 12761811; conditions: cited from earlier work
# [11] = test system: P-gp; set-up: method as in PMID 23670704; conditions: IPRL and IPML models; cited from earlier work
# [12] = set-up: method as in PMID 4654354; conditions: cited from earlier work
Compound,LogK^IAM [1],Mdr1a/1b (−/−) Permeability coefficient [2],MLV Partitioning [3],Group (impact of Mdr1a/1b knockout on IPML absorption) [4],Mdr1a/1b (+/+) ‘F’ estimate by model fit [95% CI) [4],Mdr1a/1b (-/-) ‘F’ estimate by model fit [95% CI) [4],Mdr1a/1b (+/+) % Deposited Dose absorbed [4] [%],Mdr1a/1b (-/-) % Deposited Dose absorbed [4] [%],Vmax [5] [µM/min],Mdr1a/1b (+/+) Permeability coefficient [2],Vmax [6] [µM/min],Vmax [7] [µM/min],further results
"CCN(CC)CCCC(C)Nc1ccnc2cc(Cl)ccc12 (stereo not shown) [Chloroquine, chloroquine]",1.43,23.39 ± 4.18 cm/s (x10^−6),,,,,,,,,,,
"O=c1[nH]c2ccccc2n1CCCN1CCC(n2c(=O)[nH]c3cc(Cl)ccc32)CC1 [Domperidone, domperidone]",1.33,,0.92,,,,,,,,,,
"CN1CCC[C@@H]1Cc1c[nH]c2ccc(CCS(=O)(=O)c3ccccc3)cc12 [Eletriptan, eletriptan]",1.46,11.04 ± 2.17 cm/s (x10^−6),0.94,GROUP B,18.5 [16.5 to 20.5],25.8 [23.6 to 27.9],17.9,26.6,0,4.90 ± 2.51 cm/s (x10^−6),,,Ratio AUCs (-/-) : (+/+) [4]: 1.39; Ratio Permeability (−/−): (+/+) [2]: 2.26
"CC[C@H]1OC(=O)[C@H](C)[C@@H](O[C@H]2C[C@@](C)(OC)[C@@H](O)[C@H](C)O2)[C@H](C)[C@@H](O[C@@H]2O[C@H](C)C[C@H](N(C)C)[C@H]2O)[C@](C)(O)C[C@@H](C)C(=O)[C@H](C)[C@@H](O)[C@]1(C)O [Erythromycin, erythromycin]",0.88,13.70 ± 4.54 cm/s (x10^−6),0.46,GROUP A,,,55.5,54.1,0,3.02 ± 1.15 cm/s (x10^−6),28.4,48.5,
"CCc1cc2c(cc1CC)CC(NC[C@H](O)c1ccc(O)c3[nH]c(=O)ccc13)C2 [Indacaterol, indacaterol]",1.23,29.22 ± 4.40 cm/s (x10^−6),0.92,GROUP B,29.3 [25.5 to 33.1],40.6 [36.7 to 44.5],27.6,37.3,0,15.2 ± 2.79 cm/s (x10^−6),119,132,Ratio AUCs (-/-) : (+/+) [4]: 1.37; Vmax [8]: 81.1 µM/min; Ratio Permeability (−/−): (+/+) [2]: 1.92
"O=C1c2c(O)ccc(O)c2C(=O)c2c(NCCNCCO)ccc(NCCNCCO)c21 [Mitoxantrone, mitoxantrone]",1.13,13.70 ± 2.69 cm/s (x10^−6),0.59,GROUP A,26.4 [21.9 to 30.9],24.9 [20.8 to 28.9],25.1,23.3,4.79,4.69 ± 1.06 cm/s (x10^−6),27.5,35.0,interaction with Bcrp (ATP turnover) ([5]; mouse Bcrp membrane model): showed evidence of interactions with Bcrp
"COc1ccc(C[C@H](N)C(=O)N[C@H]2[C@@H](O)[C@H](n3cnc4c(N(C)C)ncnc43)O[C@@H]2CO)cc1 [Puromycin, puromycin]",1.31,14.95 ± 2.33 cm/s (x10^−6),0.62,GROUP A,48.2 [43.7 to 52.8],56.1 [48.1 to 64.1],46.9,49.3,0,5.83 ± 2.38 cm/s (x10^−6),16.5,31.5,Ratio AUCs (-/-) : (+/+) [4]: 1.01; Vmax [8]: 19.6 µM/min; Ratio Permeability (−/−): (+/+) [2]: 2.56
"OCc1cc(C(O)CNCCCCCCOCCCCc2ccccc2)ccc1O (stereo not shown) [Salmeterol, salmeterol]",1.60,18.33 ± 2.38 cm/s (x10^−6),0.80,GROUP B,42.9 [34.6 to 47.2],57.3 [48.3 to 66.3],36.7,48.7,0,15.8 ± 2.16 cm/s (x10^−6),27.5,38.2,Ratio AUCs (-/-) : (+/+) [4]: 1.37; Vmax [8]: 24.4 µM/min; Ratio Permeability (−/−): (+/+) [2]: 1.16
O=C(O)c1cc(=O)c2c(OCC(O)COc3cccc4oc(C(=O)O)cc(=O)c34)cccc2o1 [cromolyn],,,,,,,,,,,,,permeability across the lung [9]: high permeability; Papp [10]: < 1e-06 cm/s
CN(C)C(=O)C(CCN1CCC(O)(c2ccc(Cl)cc2)CC1)(c1ccccc1)c1ccccc1 [loperamide],,,,,,,,,,,,,effect of P-gp inhibition (GF120918) upon pulmonary absorption [11]: affected
CCCCc1nc(Cl)c(CO)n1Cc1ccc(-c2ccccc2-c2nn[nH]n2)cc1 [losartan],,,,,,,,,,,,,"extent of pulmonary absorption ([9]; nebulised solutions, anaesthetised rats, mM concentrations): 92%; t^1/2absorption ([9]; nebulised solutions, anaesthetised rats): 5 min"
OC[C@@H](O)[C@@H](O)[C@H](O)[C@H](O)CO [mannitol],,,,,,,,,,,,,Mdr1a/1b (+/+) % Deposited Dose absorbed ([4]; FVB/B6 Mdr1a/1b(+/+) wild-type): 44.3 ± 9.4%; Mdr1a/1b (-/-) % Deposited Dose absorbed ([4]; FVB/B6 Mdr1a/1b(−/−) knockout): 43.2 ± 10.2%; absorbed from the lung [12]: 50 % of administered dose; absorbed from the small intestine [12]: < 2%
CC(C)(C)NCC(O)c1cc(O)cc(O)c1 (stereo not shown) [terbutaline],,,,,,,,,,,,,permeability across the lung [9]: high permeability; Papp [10]: < 1e-06 cm/s
inulin,,,,,,,,,,,,,absorbed from the lung [12]: 17 % of administered dose; absorbed from the small intestine [12]: < 2%
